This is an account of results in PMC7605558 (bioRxiv, 2020).

Molecules are shown by their SMILES. Like-named read-outs stand apart in the source and are kept apart here.

What is called IC50 is the concentration that inhibits the measured activity by half. The term EC50 denotes the concentration giving half of the maximal effect. For orientation: Ki means the equilibrium dissociation constant of an inhibitor or competing ligand from its target. A high value points to a looser hold on the target.

In one test the test system is SARS-CoV-2 pseudovirus. Type of test: cell-based.
The test system of the next test is SARS-CoV-2. The following applies: read-out: SARS-CoV-2 (EC50, μM), cellular antiviral activity; CPE assay; cited from earlier work.
The subject of the next test is SARS-CoV-2 M^pro. The following applies: cited from earlier work.
In the next test the test system is HCoV-OC43. The experiment in a line: Combination therapy with remdesivir in HCoV-OC43 CPE assay. Type of test: cell-based. The following applies: combination ratios 8:1 to 1:8.
Test [1] has as its target T1, HCoV-OC43 M^pro (Human coronavirus OC43, UniProt P0C6X6). In kind it is binding.
For test [2], the target named is T2, MERS-CoV M^pro (Middle East respiratory syndrome-related coronavirus, UniProt K9N7C7). The experiment in a line: biochemical.
T2 sequence (K9N7C7 3248-3553 limits assumed): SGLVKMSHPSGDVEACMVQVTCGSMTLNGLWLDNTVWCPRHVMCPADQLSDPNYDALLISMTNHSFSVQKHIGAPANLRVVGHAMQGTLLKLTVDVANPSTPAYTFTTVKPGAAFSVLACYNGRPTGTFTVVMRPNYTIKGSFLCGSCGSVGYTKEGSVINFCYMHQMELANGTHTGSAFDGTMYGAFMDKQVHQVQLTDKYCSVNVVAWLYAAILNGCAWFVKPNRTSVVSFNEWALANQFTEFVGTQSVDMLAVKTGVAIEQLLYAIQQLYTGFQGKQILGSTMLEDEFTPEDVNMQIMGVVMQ
For test [3], the target named is T3, SARS-CoV M^pro (Severe acute respiratory syndrome coronavirus, UniProt P0C6X7). In kind it is binding.
The target of test [4] is T1, HCoV-OC43 M^pro. Put plainly: biochemical.
Test [5] deals with HCoV-229E. Put plainly: microbe, parasite or virus in culture. In kind it is cell-based. Particulars: Human coronavirus 229E, read-out: HCoV-229E (EC50, μM).
Test [6] has as its target T3, SARS-CoV M^pro. The experiment in a line: biochemical.
Test [7] deals with T2, MERS-CoV M^pro. In kind it is binding.
In the next test the test system is HCoV-NL63. Put plainly: microbe, parasite or virus in culture. In kind it is cell-based. Particulars: Human coronavirus NL63, read-out: HCoV-NL63 (EC50, μM).
The subject of another test is SARS-CoV. Put plainly: microbe, parasite or virus in culture. Type of test: cell-based. The following applies: Severe acute respiratory syndrome coronavirus, Vero 76, 96 h, read-out: SARS-CoV (EC50, μM).
The target of test [8] is T3, SARS-CoV M^pro. Particulars: cited from earlier work.
The subject of test [9] is HCoV-229E. Particulars: read-out: EC50 against HCoV-229E; cited from earlier work.

T1 sequence (P0C6X6 3247-3549 limits assumed): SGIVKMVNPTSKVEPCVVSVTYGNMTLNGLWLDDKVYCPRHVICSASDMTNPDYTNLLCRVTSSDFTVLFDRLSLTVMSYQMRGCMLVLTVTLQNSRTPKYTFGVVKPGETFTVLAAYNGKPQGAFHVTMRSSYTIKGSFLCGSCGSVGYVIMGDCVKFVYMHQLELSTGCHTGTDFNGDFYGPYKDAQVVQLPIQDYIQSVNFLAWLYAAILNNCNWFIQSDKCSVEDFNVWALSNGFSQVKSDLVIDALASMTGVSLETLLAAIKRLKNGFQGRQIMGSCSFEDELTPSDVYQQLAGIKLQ

Take `CCOC(=O)[C@H]1O[C@@H]1C(=O)N[C@@H](CC(C)C)C(=O)NCCC(C)C` [E-64d]: in the test on SARS-CoV-2 pseudovirus (read-out: IC50 of SARS-CoV-2 pseudovirus entry), the IC50 was determined as 0.91 ± 0.1 µM.

`CC(C)(C)NC(=O)N[C@H](C(=O)N1C[C@H]2[C@@H]([C@H]1C(=O)NC(CC1CCC1)C(=O)C(N)=O)C2(C)C)C(C)(C)C` (stereo partly drawn) [boceprevir]: the EC50 in the test on SARS-CoV-2 is 1.31 ± 0.58 µM; with HCoV-229E [5], 14.1 ± 1.5 µM; in the test with HCoV-NL63 it was 16.9 ± 5.87 µM; in the test on SARS-CoV, 54.2 ± 7.76 µM. For the same compound, the IC50 with SARS-CoV-2 M^pro (read-out: IC50 against SARS-CoV-2 M^pro, enzymatic assay) is […]; on MERS-CoV M^pro [2], 10.4 µM; at HCoV-OC43 M^pro [4] it was 9 µM; against SARS-CoV M^pro [6] it was 6.63 µM. Also, in the test on HCoV-OC43, the “antiviral effect in combination with remdesivir (combination indices)” value is “additive antiviral effect”. Besides, the “HCoV-OC43 M^pro (ΔTm, °C)” value at HCoV-OC43 M^pro [1] was 1.02 ± 0.05 °C. Further, the Ki on MERS-CoV M^pro [2] amounted to 1.65 ± 0.12 µM; at HCoV-OC43 M^pro [4] it was 2.29 µM; on SARS-CoV M^pro [6] (KI against SARS-CoV M^pro), 1.43 µM. Moreover, the “SARS-CoV M^pro (ΔTm, °C)” value on SARS-CoV M^pro [3] turned out to be 3.94 ± 0.13 °C. At MERS-CoV M^pro [7], the “MERS-CoV M^pro (ΔTm, °C)” value worked out at 2.46 ± 0.07 °C. Besides, the “effect on cathepsin L-mediated SARS-CoV-2 pseudovirus entry” value in the test with SARS-CoV-2 pseudovirus is given as “no effect”.

As to `CCC(CC)COC(=O)[C@H](C)N[P@](=O)(OC[C@H]1O[C@@](C#N)(c2ccc3c(N)ncnn23)[C@H](O)[C@@H]1O)Oc1ccccc1` [remdesivir], at HCoV-OC43 M^pro [1], the “HCoV-OC43 M^pro (ΔTm, °C)” value is 0.00 ± 0.02 °C. On HCoV-OC43 M^pro [1], the “effect on HCoV-OC43 M^pro stability (Tm)” value was “no effect”. For the same compound, the concentration for a half-maximal effect (EC50) with HCoV-229E [5] is 0.03 µM; in the test on HCoV-NL63, 0.63 ± 0.041 µM.

As to `CCOC(=O)/C=C/[C@H](C[C@@H]1CCNC1=O)NC(=O)[C@@H](CC(=O)[C@@H](NC(=O)c1cc(C)on1)C(C)C)Cc1ccc(F)cc1` [rupintrivir], the “inhibition of SARS-CoV-2 M^pro” value in the test on SARS-CoV-2 M^pro is reported as “failed to inhibit”. In addition, the “inhibition of SARS-CoV M^pro” value on SARS-CoV M^pro [8] is reported as “failed to inhibit”. Further, in the test with HCoV-229E [9], the EC50 is 0.3 µM.
